The text below walks through data of patent publication EP3782997A1, “FUSED PYRIMIDINE COMPOUNDS AND PHARMACEUTICAL COMPOSITIONS THEREOF FOR THE TREATMENT OF FIBROTIC DISEASES” (Galapagos N.V., priority 2019, dated 2021).

In the test the target is hENPP2 (Homo sapiens, UniProt Q13822). Description: Human ENPP2 (hENPP2) biochemical assay using LPC as substrate. The conditions noted are these: 150 µM LPC (palmitoyl 16:0), 37°C for 30 min. As for the experimental part: The principle of the assay conswasts in quantifying the released choline with an enzymatic method using choline oxidase and peroxidase. Choline oxydation by choline oxydase releases betaine and peroxide. The latter was quantified in presence of HRP that converts the peroxide detection agent TOOS (CAS# 82692-93-1) and 4-aminoantipyrine into quinoneimine dye. The appearance of quinoneimine dye was measured spectrophotometrically at 555 nm and was proportional to the amount of choline released by ENPP2. Inhibition of ENPP2 results in a decrease of the signal.
Compound IC50 values were determined in a hENPP2 (UniProtKB/SwwassProt Sequence ref Q13822) biochemical assay using LPC as substrate.
5 µL of a dilution series of compound, starting from 50 µM highest concentration, 1/3 dilution, was added to the wells. hENPP2 was used at a final concentration of 1 µg/mL or 3 µg/mL (it will be appreciated by the skilled person that the potency read out was independent of the enzyme concentration). The enzyme was diluted in 50 mM Trwas-HCl pH 8.5, 500 mM NaCl, 5 mM KCl, 10 mM CaCl2, 0.1% fatty acid free BSA in a total volume of 10 µL. The reaction was started by the addition of 10 µL of 150 µM LPC (palmitoyl 16:0; Avanti Polar Lipids, Inc., Cat# 855675) diluted in the same buffer as described above and the mixture was incubated at 37°C for 30 min. The reaction was terminated and choline quantified by the addition of a 25 µL of a mixture containing 0.6 U/mL of choline oxidase, 0.6 U/mL of peroxydase, 1.8 mM TOOS, 1.2 mM amino-antipyrine, 20 mM EGTA (stop-developer solution) diluted in the buffer described above. […] was read on an Envision plate reader (PerkinElmer, Inc.) after an incubation of 30 min at room temperature (excitation 555 nm).
`COC(=O)[C@H]1CN(C(=O)c2ccc3[nH]nnc3c2)CC[C@H]1N1Cc2cnc(Nc3cc(C)cc(C)c3)nc2C1` (racemic) [Cpd 137, methyl (3S,4R/3R,4S)-1-(1H-benzotriazole-5-carbonyl)-4-[2-(3,5-dimethylanilino)-5,7-dihydropyrrolo[3,4-d]pyrimidin-6-yl]piperidine-3-carboxylate] gave an IC50 of 0.01 to 100 nM.

`Cc1cc(C)cc(Nc2ncc3c(n2)CN(C2CCN(C(=O)c4ccc5[nH]nnc5c4)C(C)C2)C3)c1` (racemic) [compound 34, 1H-benzotriazol-5-yl-[(2S,4S/2R,4R)-4-[2-(3,5-dimethylanilino)-5,7-dihydropyrrolo[3,4-d]pyrimidin-6-yl]-2-methyl-1-piperidyl]methanone] displayed an IC50 of 0.01 to 100 nM.

For the molecule `Cc1cc(C)cc(Nc2ncc3c(n2)CN([C@H]2CCN(C(=O)c4ccc5[nH]nnc5c4)C[C@@H]2C)C3)c1` (racemic) [compound 99, 1H-benzotriazol-5-yl-[(3S,4S/3R,4R)-4-[2-(3,5-dimethylanilino)-5,7-dihydropyrrolo[3,4-d]pyrimidin-6-yl]-3-methyl-1-piperidyl]methanone], the 50% inhibitory concentration (IC50) fell in the range of 0.01 to 100 nM.

`Cc1cc(C)cc(Nc2ncc3c(n2)CN([C@@H]2CN(C(=O)c4ccc5[nH]nnc5c4)C[C@@H]2F)C3)c1` (racemic) [compound 102, 1H-benzotriazol-5-yl-[(3R,4S/3S,4R)-3-[2-(3,5-dimethylanilino)-5,7-dihydropyrrolo[3,4-d]pyrimidin-6-yl] -4-fluoro-pyrrolidin-1-yl]methanone]: the concentration for half-maximal inhibition (IC50) was in the range of 500 to 1000 nM.

On to `Cc1cc(C)cc(Nc2ncc3c(n2)CCN([C@H]2CN(C(=O)c4ccc5[nH]nnc5c4)C[C@H]2F)C3)c1` (racemic) [compound 103, 1H-benzotriazol-5-yl-[(3S,4R/3R,4S)-3-[2-(3,5-dimethylanilino)-7,8-dihydro-5H-pyrido[4,3-d]pyrimidin-6-yl] -4-fluoro-pyrrolidin-1-yl]methanone], for which the IC50 lay within 0.01 to 100 nM.

With `COc1cc2[nH]nnc2cc1C(=O)N1CC[C@H](N2Cc3cnc(Nc4cc(C)cc(C)c4)nc3C2)[C@H](C)C1` (racemic) [compound 119, [(3R,4S/3S,4R)-4-[2-(3,5-dimethylanilino)-5,7-dihydropyrrolo[3,4-d]pyrimidin-6-yl]-3-methyl-1-piperidyl]-(6-methoxy-1H-benzotriazol-5-yl)methanone], the 50% inhibitory concentration (IC50) lay in the range of 0.01 to 100 nM.

`Cc1cc(C)cc(Nc2ncc3c(n2)CN([C@H]2CCN(C(=O)c4cc5nn[nH]c5cc4F)C[C@H]2C)C3)c1` (racemic) [compound 148, [(3R,4S/3S,4R)-4-[2-(3,5-dimethylanilino)-5,7-dihydropyrrolo[3,4-d]pyrimidin-6-yl]-3-methyl-1-piperidyl]-(6-fluoro-1H-benzotriazol-5-yl)methanone] yielded an IC50 of 0.01 to 100 nM.

`Cc1cc(C)cc(Nc2ncc3c(n2)CN([C@H]2CCN(C(=O)c4ccnc(NS(C)(=O)=O)c4)C[C@H]2C)C3)c1` (racemic) [compound 167, N-[4-[(3R,4S/3S,4R)-4-[2-(3,5-dimethylanilino)-5,7-dihydropyrrolo[3,4-d]pyrimidin-6-yl]-3-methyl-piperidine-1-carbonyl]-2-pyridyl]methanesulfonamide] gave an IC50 of 0.01 to 100 nM.

Molecule `Cc1cc(C)cc(Nc2ncc3c(n2)CN([C@H]2CCN(C(=O)c4c[nH]nn4)C[C@H]2C)C3)c1` (racemic) [compound 172, [(3R,4S/3S,4R)-4-[2-(3,5-dimethylanilino)-5,7-dihydropyrrolo[3,4-d]pyrimidin-6-yl]-3-methyl-1-piperidyl]-(1H-triazol-4-yl)methanone] registered an IC50 of 0.01 to 100 nM.

`Cc1cc(C)cc(Nc2ncc3c(n2)CN(C2CCN(C(=O)c4ccc5[nH]nnc5c4)CC2O)C3)c1` (single isomer, unassigned) [Cpd 110, 1H-benzotriazol-5-yl-[4-[2-(3,5-dimethylanilino)-5,7-dihydropyrrolo[3,4-d]pyrimidin-6-yl]-3-hydroxy-1-piperidyl]methanone]: the 50% inhibitory concentration (IC50) was 0.01 to 100 nM.

As for `Cc1cc(C)cc(Nc2ncc3c(n2)CN(C2CN(C(=O)c4ccc5[nH]nnc5c4)CCC2O)C3)c1` (single isomer, unassigned) [Cpd 111, 1H-benzotriazol-5-yl-[3-[2-(3,5-dimethylanilino)-5,7-dihydropyrrolo[3,4-d]pyrimidin-6-yl]-4-hydroxy-1-piperidyl]methanone], the IC50 is 500 to 1000 nM.

Consider `COC(=O)[C@H]1CN(C(=O)c2ccc3[nH]nnc3c2)CC[C@@H]1N1Cc2cnc(Nc3cc(C)cc(C)c3)nc2C1` (single isomer, unassigned) [Cpd 136], for which the IC50 was 0.01 to 100 nM.

The molecule `CCOc1cc2[nH]nnc2cc1C(=O)N1CC[C@H](N2Cc3cnc(Nc4cc(C)cc(C)c4)nc3C2)C[C@H]1C` (single isomer, unassigned) [Cpd 138] registered a half-maximal inhibitory concentration (IC50) of 0.01 to 100 nM.

Take `CCOc1cc2[nH]nnc2cc1C(=O)N1CC[C@@H](N2Cc3cnc(Nc4cc(C)cc(C)c4)nc3C2)C[C@H]1C` (single isomer, unassigned) [Cpd 139]: the IC50 fell in the range of 0.01 to 100 nM.

In turn, `C[C@@H]1C[C@@H](N2Cc3cnc(Nc4ccc(OC(F)(F)F)cc4)nc3C2)CCN1C(=O)c1ccc2[nH]nnc2c1` (single isomer, unassigned) [Cpd 164] had an IC50 of 0.01 to 100 nM.

The molecule `C[C@@H]1C[C@H](N2Cc3cnc(Nc4ccc(OC(F)(F)F)cc4)nc3C2)CCN1C(=O)c1ccc2[nH]nnc2c1` (single isomer, unassigned) [Cpd 169] displayed a concentration for half-maximal inhibition (IC50) of 0.01 to 100 nM.

Regarding `Cc1cc(C)cc(Nc2ncc3c(n2)CCN(C2CN(C(=O)c4ccc5[nH]c(=O)oc5c4)C2)C3)c1` [Cpd 1, 6-[3-[2-(3,S-dimethylanilino)-7,8-dihydro-5H-pyrido[4,3-d]pyrimidin-6-yl]azetidine-1-carbonyl]-3H-1,3-benzoxazol-2-one], the half-maximal inhibitory concentration (IC50) lay in the range of 0.01 to 100 nM.

With `Cc1cc(C)cc(Nc2ncc3c(n2)CN(C2CN(C(=O)c4ccc5[nH]c(=O)oc5c4)C2)C3)c1` [Cpd 3, 6-[3-[2-(3,5-dimethylanilino)-5,7-dihydropyrrolo[3,4-d]pyrimidin-6-yl]azetidine-1-carbonyl]-3H-1,3-benzoxazol-2-one], the 50% inhibitory concentration (IC50) is 0.01 to 100 nM.

For the molecule `Cc1cc(C)cc(Nc2ncc3c(n2)CN(C2CN(C(=O)c4cccc(C(=O)O)c4)C2)C3)c1` [Cpd 25, 3-[3-[2-(3,5-dimethylanilino)-5,7-dihydropyrrolo[3,4-d]pyrimidin-6-yl]azetidine-1-carbonyl]benzoic acid], the half-maximal inhibitory concentration (IC50) is above 1000 nM.

`Cc1cc(C)nc(Nc2ncc3c(n2)CN(C2CCN(C(=O)c4ccc5[nH]c(=O)oc5c4)CC2)C3)c1` [Cpd 60, 6-[4-[2-[(4,6-dimethyl-2-pyridyl)amino]-5,7-dihydropyrrolo[3,4-d]pyrimidin-6-yl]piperidine-1-carbonyl]-3H-1,3-benzoxazol-2-one] displayed a half-maximal inhibitory concentration (IC50) of 100 to 500 nM.

The molecule `Cc1cc(C)cc(Nc2ncc3c(n2)CN(C2CCN(C(=O)c4cnc5[nH]nnc5c4)CC2)C3)c1` [Cpd 66, [4-[2-(3,5-dimethylanilino)-5,7-dihydropyrrolo[3,4-d]pyrimidin-6-yl]-1-piperidyl]-(3H-triazolo[4,5-b]pyridin-6-yl)methanone] had a half-inhibitory concentration (IC50) of 500 to 1000 nM.

Regarding `Cc1cc(C)cc(Nc2ncc3c(n2)CN(C2CN(C(=O)c4cnc5nn[nH]c5c4)C2)C3)c1` [Cpd 67, [3-[2-(3,5-dimethylanilino)-5,7-dihydropyrrolo[3,4-d]pyrimidin-6-yl]azetidin-1-yl]-(1H-triazolo[4,5-b]pyridin-6-yl)methanone], the half-maximal inhibitory concentration (IC50) is above 1000 nM.

Take `Cc1cc(C)cc(Nc2ncc3c(n2)CCCN(C2CCN(C(=O)c4cnc5[nH]nnc5c4)CC2)C3)c1` [Cpd 76, [4-[2-(3,5-dimethylanilino)-5,7,8,9-tetrahydropyrimido[5,4-c]azepin-6-yl]-1-piperidyl]-(3H-triazolo[4,5-b]pyridin-6-yl)methanone]: the IC50 was above 1000 nM.

In turn, `Cc1cc(C)cc(Nc2ncc3c(n2)CN(C2CN(C(=O)c4ccc5[nH]nnc5n4)C2)C3)c1` [Cpd 86, [3-[2-(3,5-dimethylanilino)-5,7-dihydropyrrolo[3,4-d]pyrimidin-6-yl]azetidin-1-yl]-(1H-triazolo[4,5-b]pyridin-5-yl)methanone] had a half-maximal inhibitory concentration (IC50) of 0.01 to 100 nM.

For `Cc1cc(C)cc(Nc2ncc3c(n2)CCN(C2CCN(C(=O)c4ccc5[nH]nnc5c4)[C@@H](C)C2)C3)c1` (stereo partly drawn) [Cpd 96, 1H-benzotriazol-5-yl-[(2S)-4-[2-(3,5-dimethylanilino)-7,8-dihydro-5H-pyrido[4,3-d]pyrimidin-6-yl]-2-methyl-1-piperidyl]methanone], the IC50 was in the range of 0.01 to 100 nM.

Regarding `Cc1cc(C)cc(Nc2ncc3c(n2)CCN([C@@H]2CCN(C(=O)c4ccc5[nH]nnc5c4)[C@H](C)C2)C3=O)c1` [Cpd 97, 6-[(2R,4R)-1-(1H-benzotriazole-5-carbonyl)-2-methyl-4-piperidyl]-2-(3,5-dimethylanilino)-7,8-dihydropyrido[4,3-d]pyrimidin-5-one], the 50% inhibitory concentration (IC50) lay within 100 to 500 nM.
